Measured values reported in article PMC3488320, “Indirubin derivative E804 inhibits angiogenesis” (BMC Cancer, 2012).

Biological target: T1, VEGFR-2 (Homo sapiens, UniProt P35968)
T1 construct: gene KDR
Assay: HTScan VEGFR-2 kinase assay kit (purified kinase, peptide substrate, pTyr-100 ELISA)
Format: biochemical

T1 sequence (P35968 20-1356): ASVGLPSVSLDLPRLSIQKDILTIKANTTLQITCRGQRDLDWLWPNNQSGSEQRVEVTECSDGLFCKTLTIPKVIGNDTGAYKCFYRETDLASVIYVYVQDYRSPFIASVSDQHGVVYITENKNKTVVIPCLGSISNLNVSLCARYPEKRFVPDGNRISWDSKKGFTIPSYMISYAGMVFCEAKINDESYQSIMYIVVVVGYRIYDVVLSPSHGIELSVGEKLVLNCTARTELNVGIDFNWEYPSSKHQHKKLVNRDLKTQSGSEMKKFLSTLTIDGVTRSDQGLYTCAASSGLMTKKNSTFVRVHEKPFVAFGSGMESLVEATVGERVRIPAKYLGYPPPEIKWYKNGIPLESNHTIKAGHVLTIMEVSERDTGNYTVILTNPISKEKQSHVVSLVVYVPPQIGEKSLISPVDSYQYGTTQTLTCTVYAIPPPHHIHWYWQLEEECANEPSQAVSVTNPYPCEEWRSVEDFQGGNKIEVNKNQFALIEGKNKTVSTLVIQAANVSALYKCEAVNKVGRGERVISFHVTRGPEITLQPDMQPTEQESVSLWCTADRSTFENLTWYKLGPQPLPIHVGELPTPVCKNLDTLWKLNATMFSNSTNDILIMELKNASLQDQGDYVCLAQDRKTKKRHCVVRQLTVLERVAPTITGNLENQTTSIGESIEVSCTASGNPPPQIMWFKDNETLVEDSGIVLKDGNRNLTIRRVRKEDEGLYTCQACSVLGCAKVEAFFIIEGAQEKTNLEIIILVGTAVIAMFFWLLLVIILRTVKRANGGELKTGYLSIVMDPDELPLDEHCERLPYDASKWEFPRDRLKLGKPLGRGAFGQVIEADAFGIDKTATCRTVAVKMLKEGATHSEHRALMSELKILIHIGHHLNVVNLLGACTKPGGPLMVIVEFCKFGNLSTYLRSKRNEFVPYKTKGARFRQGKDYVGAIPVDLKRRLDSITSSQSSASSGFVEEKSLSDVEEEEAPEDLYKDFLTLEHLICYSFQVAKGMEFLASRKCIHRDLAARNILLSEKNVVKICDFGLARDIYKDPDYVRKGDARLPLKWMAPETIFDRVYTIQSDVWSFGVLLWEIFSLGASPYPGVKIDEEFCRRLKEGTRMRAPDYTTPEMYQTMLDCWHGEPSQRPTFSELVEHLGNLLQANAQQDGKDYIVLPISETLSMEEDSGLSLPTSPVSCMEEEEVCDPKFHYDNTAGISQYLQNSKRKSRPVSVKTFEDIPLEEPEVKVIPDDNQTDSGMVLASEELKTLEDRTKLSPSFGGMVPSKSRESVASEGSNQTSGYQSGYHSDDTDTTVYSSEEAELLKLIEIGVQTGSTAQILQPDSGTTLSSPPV

- IC50: 0.95 µM
SMILES: O=C1Nc2ccccc2C1=C1Nc2ccccc2C1=NOCC(O)CO (stereo not shown) [IDR-E804]
